Assay results published in patent US7807630B2, “Targeting of Notch3 receptor function for cancer therapy” (Vanderbilt University, priority 2007, dated 2010).
Entries after “also recorded” stand apart in the source; their conditions may differ. Where no end group is shown, it is not given here.

Assays:
[1] = biological target: T1, Jagged1 (Homo sapiens, UniProt P78504); experiment: Streptavidin pull-down of peptides from Jagged1-HA transfected HEK cells, anti-HA immunoblot; assay type: binding; conditions: HEK cells transfected with Jagged1-HA, anti-HA blot
T1 construct: expressed in transfected cells; host or cells: HEK cells
T1 sequence (P78504 34-1218, species assumed): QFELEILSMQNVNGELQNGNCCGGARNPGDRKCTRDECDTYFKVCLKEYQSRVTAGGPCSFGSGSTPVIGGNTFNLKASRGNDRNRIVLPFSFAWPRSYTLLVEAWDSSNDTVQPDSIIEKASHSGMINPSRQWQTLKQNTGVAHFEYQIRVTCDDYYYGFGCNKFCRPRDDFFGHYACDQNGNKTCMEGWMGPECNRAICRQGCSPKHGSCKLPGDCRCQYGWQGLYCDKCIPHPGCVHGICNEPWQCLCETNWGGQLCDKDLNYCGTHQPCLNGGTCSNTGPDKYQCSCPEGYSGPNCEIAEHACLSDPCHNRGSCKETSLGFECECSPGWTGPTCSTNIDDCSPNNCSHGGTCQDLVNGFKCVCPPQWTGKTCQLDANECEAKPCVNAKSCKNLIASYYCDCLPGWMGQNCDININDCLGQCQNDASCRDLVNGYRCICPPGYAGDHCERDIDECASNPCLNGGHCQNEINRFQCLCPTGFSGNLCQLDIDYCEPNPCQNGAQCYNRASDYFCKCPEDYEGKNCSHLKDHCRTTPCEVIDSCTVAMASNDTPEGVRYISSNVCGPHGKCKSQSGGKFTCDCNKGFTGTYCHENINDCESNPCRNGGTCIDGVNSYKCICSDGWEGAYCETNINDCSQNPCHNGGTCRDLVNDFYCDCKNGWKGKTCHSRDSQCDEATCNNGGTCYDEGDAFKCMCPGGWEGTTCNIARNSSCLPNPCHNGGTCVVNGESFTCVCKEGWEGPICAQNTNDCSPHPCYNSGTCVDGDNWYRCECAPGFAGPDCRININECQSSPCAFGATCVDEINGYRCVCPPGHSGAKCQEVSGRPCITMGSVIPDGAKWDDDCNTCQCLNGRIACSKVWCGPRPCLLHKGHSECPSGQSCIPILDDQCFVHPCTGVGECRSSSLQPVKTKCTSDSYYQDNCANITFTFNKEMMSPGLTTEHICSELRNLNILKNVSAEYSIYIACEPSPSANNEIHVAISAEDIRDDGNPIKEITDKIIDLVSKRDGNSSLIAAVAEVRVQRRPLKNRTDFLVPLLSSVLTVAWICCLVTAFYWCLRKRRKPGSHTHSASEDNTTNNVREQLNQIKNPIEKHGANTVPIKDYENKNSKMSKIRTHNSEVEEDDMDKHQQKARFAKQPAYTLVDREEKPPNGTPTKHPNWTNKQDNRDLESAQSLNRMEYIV
Procedure: FIG. 15. […] HEK cells were transfected with Jagged1-HA and treated with Notch3 peptides. The peptides were then immunoprecipitated from cell lysate with streptavidin beads and immunoblotted with anti-HA antibody. No: no input; C: control peptide. Sequences N16: CFNTLGGHS, N17: CVCVNGWTGES, N102: CATAV, N103: CFHGAT, N132: CLNGGS.
(§1) Each of 155 different peptides were assayed in quadruplicate, and only those peptides that produced a significant increase of fluorescence signal in all 4 wells were considered potentially positive or capable of inducing apoptosis. The bar graphs here reflect fluorescence counts. […] The peptides were then immunoprecipitated from cell lysate with streptavidin beads and immunoblotted with anti-HA antibody.

[2] = Peptide screen for apoptosis by Annexin V staining using an FMAT system; assay type: cell-based; conditions: FMAT screen of 155 peptides, quadruplicate
Procedure: FIG. 13. […] Each of 155 different peptides were assayed in quadruplicate, and only those peptides that produced a significant increase of fluorescence signal in all 4 wells were considered potentially positive or capable of inducing apoptosis. The bar graphs here reflect fluorescence counts. Sequences N102: CATAV, N103: CFHGAT, N105: CVSNP, N132: CLNGGS.
as §1

[3] = system: HCC2429; experiment: Apoptosis by annexin V labelling and flow cytometry after Notch3 peptide treatment; assay type: cell-based, human; conditions: HCC2429, compared to control
Procedure: (FIG. 14A) HCC2429 was treated with Notch3 peptides N16, N17, N102, N103, N132. […] MRK003-treated cell is used as positive control. After treatment, cells were labeled with annexin V and detected using flow cytometry. […] MRK003-treated cells were used as positive control. Sequences N16: CFNTLGGHS, N17: CVCVNGWTGES, N102: CATAV, N103: CFHGAT, N132: CLNGGS. […]

[4] = system: Notch3-dependent gene Hey1; experiment: Hey1 transcription by real-time RT-PCR after peptide treatment; assay type: cell-based, human
[5] = Apoptosis (percentage of annexin V positive cells) after Fc-fusion protein treatment; assay type: cell-based; conditions: 40 hrs treatment, compared to control and Fc control
Procedure: […] […] Apoptosis was determined by percentage of annexin V positive cells. Sequences N16: CFNTLGGHS, N17: CVCVNGWTGES, N132: CLNGGS.

[6] = biological target: H460; experiment: Sensitivity to AG1478 with and without Notch3 inhibition (DN construct or γ-secretase inhibitor); assay type: cell-based, human
Excerpt: (§2) FIGS. 11A-B. Notch3 modulates the EGF pathway and increases sensitivity to an EGFr inhibitor. (FIG. 11A) In HCC2429, inhibition of the Notch3 pathway increases sensitivity to AG1478 nearly 40-fold. […] (FIG. 11B) A similar observation is made in H460 when the inventors combine AG1478 with L-685,458, a γ-secretase inhibitor, further supporting the hypothesis that EGF cooperates with the Notch pathway in oncogenesis.
(§3) EGFr Inhibitors Enhance the Anti-proliferation Effect of Notch3 Inhibition. […] Based on existing literature and their observations, the inventors hypothesized that Notch3 acts synergistically with the EGFR pathway in the promotion and the survival of lung cancer cells and that combining inhibitors of both pathways will have synergistic therapeutic value. To test this hypothesis, the inventors examined whether inhibiting the Notch3 pathway increases tumor inhibition when lung cancer cells are treated with an EGFR tyrosine kinase inhibitor, AG1478. […] Synergism can also be observed when the γ-secretase inhibitor L-685,458 is added to AG1478 (FIG. 11B). […] From a therapeutic standpoint, Notch3 is a good target for therapeutic intervention both alone and in combination with growth factor receptor inhibitors.

[7] = system: HCC2429 cells; experiment: Sensitivity to the EGFR tyrosine kinase inhibitor AG1478 with and without Notch3 inhibition (DN construct); assay type: cell-based, human
Excerpt: as §2, §3

[8] = system: HCC2429 xenografts; experiment: MRK003 treatment of subcutaneous HCC2429 xenografts; assay type: in vivo, mice
Procedure: (FIG. 8A) Xenografts injected with HCC2429 were treated with MRK003 once the tumors became palpable. After 2 weeks of treatment, the inventors observed about a 50% reduction in tumor size. […] Histological examination of resected tumors from xenografts at the end of treatment.
To assess the effect of pharmacologically inhibiting Notch activation in vivo, the inventors treated subcutaneous xenografts with MRK003, a γ-secretase inhibitor from Merck, Inc. & Co. Based on the manufacturer's recommended dose, the mice were treated with 100 mg/kg orally for 3 consecutives days per week once the tumors were palpable. At the end of a 2-week treatment, the animals were then euthanized, and the tumors were harvested.

[9] = system: HCC2429 cells; experiment: Cell survival with MRK003 in HCC2429 clones expressing Notch3 siRNA; assay type: cell-based, human; conditions: HCC2429 clones with loss of Notch3 (siRNA-N3)
Procedure: HCC2429 cells are sensitive to GSI, and the sensitivity increases in low serum, similarly to that observed with clones expressing the DN construct. Tumor cells treated with DMSO alone had no change in cell viability. (FIG. 7B) Inhibition of S3 proteolytic processing results in the decrease of Notch3 intracellular domain (N3ICD) and accumulation of S2 product (N3ΔE) after 3 hours. (FIG. 7C) In this experiment, HCC2429 was stably transfected with plasmid vector expressing Notch3 siRNA.
A γ-Secretase Inhibitor Reduces Proliferation in Lung Cancer Cells. Proteolytic processing of Notch receptors is required for activation. As previously described, three proteolytic cleavage sites are involved in enabling Notch signaling. In the final step, the membrane-associated Notch fragment is cleaved within its transmembrane domain by a γ-secretase-containing protein complex. Mammalian presenilins (PS-1 and PS-2) are polytopic transmembrane proteins that appear to function as aspartyl proteases within a multiprotein, γ-secretase complex (Wolfe and Kopan, 2004). Presenilins provide the active site of the proteolytic activity. This last cleavage releases the Notch intracellular domain, initiating CBF-1-mediated signaling. […]

[10] = system: HCC2429 lung cancer cell line; experiment: Soft-agar colony assay, MRK003 with AG1478; assay type: cell-based, human
Excerpt: FIGS. 12A-B. In HCC2429 lung cancer cell line, Notch inhibitor MRK003 enhances the effect of EGFR inhibitor AG1478 on colony formation in soft agar. […] (FIG. 12B) Graph depicts the quantitative decrease in colony formation.
as §3

Molecule | binding to ligand Jagged1 [1] | apoptosis by Annexin V staining (fluorescence counts) [2] | apoptosis (annexin V, flow cytometry) [3] | transcription of Notch3-dependent gene Hey1 [4] | also measured
CATAV [N102, Notch3 peptide] | binding to ligand Jagged1 | induce apoptosis | Induction of apoptosis | reduced transcription of Notch3-dependent gene Hey1 | 
CVSNP [N105, Notch3 peptide] |  | induce apoptosis |  |  | 
CFHGAT [N103, Notch3 peptide] | binding to ligand Jagged1 | induce apoptosis | Induction of apoptosis | reduced transcription of Notch3-dependent gene Hey1 | 
N16-17-Fc: Purified recombinant Fc-fusion Notch3 protein with N16-17 sequences (CFNTLGGHSCVCVNGWTGES; cysteine pairing not given here; also: Fc fusion (dimerising Fc left off)) |  |  |  |  | apoptosis (percentage of annexin V positive cells) [5]: induces apoptosis
CFNTLGGHS [N16, Notch3 peptide] | binding to ligand Jagged1 |  | Induction of apoptosis | reduced transcription of Notch3-dependent gene Hey1 | 
COc1cc2ncnc(Nc3cccc(Cl)c3)c2cc1OC [AG1478] |  |  |  |  | IC50 ([6]; H460, without Notch3 inhibition): 23.8 µM; reduction of cancer cell survival upon inhibition of the Notch3 pathway ([6]; H460 treated with AG1478): approximately two-fold; IC50 ([6]; H460 with inhibition of the Notch3 pathway): 12.1 µM; increase in sensitivity to AG1478 upon inhibition of the Notch3 pathway ([7]; HCC2429, DN construct versus control): 40 fold; IC50 ([7]; HCC2429, EGF-supplemented media, without Notch3 inhibition): 8.3 µM; IC50 ([7]; HCC2429 clones transfected with the DN (dominant-negative Notch3) construct, EGF-supplemented media): 0.2 µM
CVCVNGWTGES [N17, Notch3 peptide] | binding to ligand Jagged1 |  | Induction of apoptosis; also recorded: highest apoptotic activity | reduced transcription of Notch3-dependent gene Hey1; also recorded: best reduction in Hey1 transcription | 
O=S1(=O)N[C@@]2(CN1CC(F)(F)F)[C@@H]1CC[C@H]2Cc2ccc(/C=C/CN3CCC(C(F)(F)F)CC3)cc2C1 [MRK003] |  |  |  |  | tumor size ([8]; 100 mg/kg orally, 3 consecutive days per week, end of 2-week treatment): reduction of tumor size; reduction in tumor size ([8]; HCC2429 xenografts, 100 mg/kg orally, 3 consecutive days per week, after 2 weeks of treatment): ~50%; histological examination of resected tumors ([8]; end of treatment, compared to control): Marked necrosis; activated Notch3 (N3ICD) in tumor ([8]; xenograft tumors treated with MRK003): reduction in activated Notch3 (N3ICD); also recorded: Loss of activated Notch3 (N3ICD); cell survival when treated with MRK003 [9]: no loss in cell survival; colony formation in soft agar ([10]; HCC2429, MRK003 alone): decreases colony formation; colony formation in soft agar, combination with EGFR inhibitor AG1478 ([10]; HCC2429, MRK003 combined with AG1478): additive effects; also recorded: enhances the effect of AG1478 on growth
CLNGGS [N132, Notch3 peptide] | binding to ligand Jagged1 | induce apoptosis | Induction of apoptosis | reduced transcription of Notch3-dependent gene Hey1 | 
CC(C)C[C@H](NC(=O)[C@H](Cc1ccccc1)C[C@@H](O)[C@H](Cc1ccccc1)NC(=O)OC(C)(C)C)C(=O)N[C@@H](Cc1ccccc1)C(N)=O [L-685,458] |  |  |  |  | combined effect of L-685,458 added to AG1478 ([6]; H460 (FIG. 11B)): Synergism
